According to patent publication US8273760B2, “Indolo[3,2-c]quinoline compounds” (Kaohsiung Medical University, priority 2008, dated 2012):
Counter-ions that a name gives are not always drawn. Like-named read-outs stand apart in the source and are kept apart here.

What was measured:
HCT-116 = experiment: In vitro anticancer assay (NCI panel), HCT-116; type: cell-based; settings: Homo sapiens; HCT-116, colon cancer
Description: (§1) Selected compounds were evaluated in vitro against the NCI's full panel of 60 cancer cell lines derived from nine cancer cell types, including: leukemia (CCRF-CEM, HL-60 (TB), K-562, MOLT-4, RPMI-8226, and SR); non-small cell lung cancer (A549/ATCC, EKVX, HOP-62, HOP-92, NCI-H226, NCI-H23, NCI-H322M, and NCI-H522); colon cancer (COLO 205, HCC-2998, HCT-116, HCT-15, HT29, KM12, and SW-620); CNS cancer (SF-268, SF-295, SF-539, SNB-19, SNB-75, and U251); melanoma (LOX IMVI, MALME-3M, M14, SK-MEL-2, SK-MEL-28, SK-MEL-5, UACC-62, and UACC-257); ovarian cancer (IGROV1, OVCAR-3, OVCAR-4, OVCAR-5, OVCAR-8, and SK-OV-3); renal cancer (786-0, A498, ACHN, CAKI-1, RXF 393, SN12C, TK-10, and UO-31); prostate cancer (PC-3 and DU-145); and breast cancer (MCF7, MCF7/ADR-RES, MDA-MB-231/ATCC, HS 578T, MDA-MB-435, MDA-N, and T-47D). For each compound, dose-response curves for each cell line were measured with five different drug concentrations, and the concentration causing 50% cell growth inhibition (GI50) compared with the control was calculated. The mean GI50 values of each tested compound for all the 60 tumor cell lines were also calculated.

SNB-19 = experiment: In vitro anticancer assay (NCI panel), SNB-19; type: cell-based; settings: Homo sapiens; SNB-19, CNS cancer
Description: as §1

MCF7 = experiment: In vitro anticancer assay (NCI panel), MCF7; type: cell-based; settings: Homo sapiens; MCF7, breast cancer
Description: as §1

ACHN = experiment: In vitro anticancer assay (NCI panel), ACHN; type: cell-based; settings: Homo sapiens, renal cancer
Description: as §1

SR = experiment: In vitro anticancer assay (NCI panel), SR; type: cell-based; settings: Homo sapiens, leukemia
Description: as §1

OVCAR-8 = experiment: In vitro anticancer assay (NCI panel), OVCAR-8; type: cell-based; settings: Homo sapiens; OVCAR-8, ovarian cancer
Description: as §1

MDA-MB-435 = experiment: In vitro anticancer assay (NCI panel), MDA-MB-435; type: cell-based; settings: Homo sapiens; MDA-MB-435, breast cancer
Description: as §1

MDA-MB-231/ATCC = experiment: In vitro anticancer assay (NCI panel), MDA-MB-231/ATCC; type: cell-based; settings: Homo sapiens, breast cancer
Description: as §1

HL-60 (TB) = experiment: In vitro anticancer assay (NCI 60 cell line panel), HL-60 (TB); type: cell-based; settings: Homo sapiens, leukemia
Description: as §1

NCI-H460 = experiment: In vitro anticancer assay (NCI panel), NCI-H460; type: cell-based; settings: Homo sapiens; NCI-H460, non-small cell lung cancer
Description: as §1

UACC-62 = experiment: In vitro anticancer assay (NCI panel), UACC-62; type: cell-based; settings: Homo sapiens; UACC-62, melanoma
Description: as §1

SK-MEL-2 = experiment: In vitro anticancer assay (NCI panel), SK-MEL-2; type: cell-based; settings: Homo sapiens; SK-MEL-2, melanoma
Description: as §1

SF-295 = experiment: In vitro anticancer assay (NCI panel), SF-295; type: cell-based; settings: Homo sapiens; SF-295, CNS cancer
Description: as §1

A549/ATCC = experiment: In vitro anticancer assay (NCI panel), A549/ATCC; type: cell-based; settings: Homo sapiens, non-small cell lung cancer
Description: as §1

HOP-62 = experiment: In vitro anticancer assay (NCI panel), HOP-62; type: cell-based; settings: Homo sapiens; HOP-62, non-small cell lung cancer
Description: as §1

SF-268 = experiment: In vitro anticancer assay (NCI panel), SF-268; type: cell-based; settings: Homo sapiens; SF-268, CNS cancer
Description: as §1

COLO 205 = experiment: In vitro anticancer assay (NCI panel), COLO 205; type: cell-based; settings: Homo sapiens; COLO 205, colon cancer
Description: as §1

DU-145 = experiment: In vitro anticancer assay (NCI panel), DU-145; type: cell-based; settings: Homo sapiens; DU-145, prostate cancer
Description: as §1

HT29 = experiment: In vitro anticancer assay (NCI panel), HT29; type: cell-based; settings: Homo sapiens, HT-29; HT29, colon cancer
Description: as §1

OVCAR-5 = experiment: In vitro anticancer assay (NCI panel), OVCAR-5; type: cell-based; settings: Homo sapiens; OVCAR-5, ovarian cancer
Description: as §1

[1] = test system: NCI's full panel of 60 cancer cell lines; experiment: In vitro anticancer assay, all cell lines of the NCI panel; type: cell-based, human
Description: as §1

SN12C = experiment: In vitro anticancer assay (NCI panel), SN12C; type: cell-based; settings: Homo sapiens, renal cancer
Description: as §1

786-0 = experiment: In vitro anticancer assay (NCI panel), 786-0; type: cell-based; settings: Homo sapiens; 786-0, renal cancer
Description: as §1

OVCAR-3 = experiment: In vitro anticancer assay (NCI panel), OVCAR-3; type: cell-based; settings: Homo sapiens; OVCAR-3, ovarian cancer
Description: as §1

LOX IMVI = experiment: In vitro anticancer assay (NCI panel), LOX IMVI; type: cell-based; settings: Homo sapiens, melanoma
Description: as §1

K-562 = experiment: In vitro anticancer assay (NCI panel), K-562; type: cell-based; settings: Homo sapiens, K562; K-562, leukemia
Description: as §1

telomerase = telomerase (Homo sapiens, UniProt O14746); experiment: Telomeric Repeat Amplification Protocol (TRAP) assay, cell-free; settings: 0.5 μg total cell extract from H1299 human lung cancer cells, FIG. 1
Sequence of telomerase (O14746 whole entry): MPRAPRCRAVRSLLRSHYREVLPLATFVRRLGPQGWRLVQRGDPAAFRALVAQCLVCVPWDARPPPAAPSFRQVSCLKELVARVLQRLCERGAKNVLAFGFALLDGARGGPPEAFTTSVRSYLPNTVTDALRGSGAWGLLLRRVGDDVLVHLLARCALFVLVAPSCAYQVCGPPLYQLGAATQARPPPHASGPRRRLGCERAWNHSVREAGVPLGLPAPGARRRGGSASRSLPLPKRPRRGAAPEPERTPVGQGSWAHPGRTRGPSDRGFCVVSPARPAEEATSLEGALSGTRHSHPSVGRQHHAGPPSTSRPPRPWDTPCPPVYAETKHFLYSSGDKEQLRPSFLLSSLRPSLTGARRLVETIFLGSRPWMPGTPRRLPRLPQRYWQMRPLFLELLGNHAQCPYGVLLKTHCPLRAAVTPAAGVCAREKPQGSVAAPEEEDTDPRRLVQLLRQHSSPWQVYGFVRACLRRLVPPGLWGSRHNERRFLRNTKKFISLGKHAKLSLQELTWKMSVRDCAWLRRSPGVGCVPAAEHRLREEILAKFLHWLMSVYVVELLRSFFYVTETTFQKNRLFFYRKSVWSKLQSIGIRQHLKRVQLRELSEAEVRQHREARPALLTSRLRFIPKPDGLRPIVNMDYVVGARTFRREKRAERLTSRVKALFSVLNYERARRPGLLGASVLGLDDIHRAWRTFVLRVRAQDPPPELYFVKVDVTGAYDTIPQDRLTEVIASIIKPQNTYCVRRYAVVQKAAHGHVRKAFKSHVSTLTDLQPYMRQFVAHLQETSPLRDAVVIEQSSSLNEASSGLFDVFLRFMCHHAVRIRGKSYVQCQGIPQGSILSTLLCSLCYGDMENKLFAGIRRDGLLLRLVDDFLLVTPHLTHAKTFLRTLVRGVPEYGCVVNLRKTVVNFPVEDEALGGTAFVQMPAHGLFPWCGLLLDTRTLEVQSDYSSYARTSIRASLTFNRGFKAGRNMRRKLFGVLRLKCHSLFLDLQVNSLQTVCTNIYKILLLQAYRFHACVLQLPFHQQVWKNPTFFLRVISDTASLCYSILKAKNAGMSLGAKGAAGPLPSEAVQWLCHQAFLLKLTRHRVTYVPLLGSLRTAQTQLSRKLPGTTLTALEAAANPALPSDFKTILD

PC-3 = experiment: In vitro anticancer assay (NCI panel), PC-3; type: cell-based; settings: Homo sapiens; PC-3, prostate cancer
Description: as §1

[2] = Homo sapiens, mean values of over all cell lines tested, read-out: MG MID (mean GI50)

Molecule	GI50 (HCT-116) [µM]	GI50 (SNB-19) [µM]	GI50 (MCF7) [µM]	GI50 (ACHN) [µM]	GI50 (SR) [µM]	GI50 (OVCAR-8) [µM]	GI50 (MDA-MB-435) [µM]	GI50 (MDA-MB-231/ATCC) [µM]	GI50 (HL-60 (TB)) [µM]	GI50 (NCI-H460) [µM]	GI50 (UACC-62) [µM]	GI50 (SK-MEL-2) [µM]	GI50 (SF-295) [µM]	GI50 (A549/ATCC) [µM]	GI50 (HOP-62) [µM]	GI50 (SF-268) [µM]	GI50 (COLO 205) [µM]	GI50 (DU-145) [µM]	GI50 (HT29) [µM]	GI50 (OVCAR-5) [µM]	further results
c1ccc2c(c1)nc(NCCN1CCNCC1)c1c3ccccc3[nH]c21 (as salt: hydrochloride) [Compound 5, N-(11H-Indolo[3,2-c]quinolin-6-yl)-2-(piperazin-1-yl)ethanamine]	–	–	–	–	–	–	–	–	–	–	–	–	–	–	–	–	–	–	–	–	melting point: 210 to 211 °C
Cl.Nc1nc2ccccc2c2[nH]c3ccccc3c12 [Compound 7e, 11H-Indolo[3,2-c]quinolin-6-ylamine hydrochloride]	0.5	1.1	1.19	0.48	0.64	0.98	0.94	1.22	1.98	0.41	13.5	1.54	1.03	1.09	1.13	1.97	1.07	1.94	0.51	1.84	melting point: 377 to 378 °C; GI50 [1, 2]: 1.29 µM; GI50 (SN12C): 1.24 µM; GI50 (786-0): 1.12 µM; GI50 (OVCAR-3): 1.42 µM; GI50 (LOX IMVI): 1.05 µM; GI50 (K-562): 0.62 µM
Oc1ccc(CCNc2nc3ccccc3c3[nH]c4ccccc4c23)cc1 [Compound 7a, 6-[2-(4-Hydroxyphenyl)ethylamino]-11H-indolo[3,2-c]quinoline hydrochloride]	1.22	1.83	1.37	1.27	1.48	1.02	1.6	1.36	2.4	1.31	1.66	1.73	1.38	1.33	1.63	1.71	1.18	1.45	1.42	2.89	concentration that completely inhibited telomerase activity (telomerase): approximately 2 nM; GI50 (PC-3): 1.63 µM; GI50 [1, 2]: 1.7 µM; GI50 (SN12C): 1.27 µM; GI50 (786-0): 1.29 µM; GI50 (OVCAR-3): 1.6 µM; GI50 (LOX IMVI): 1.59 µM; GI50 (K-562): 1.91 µM
CN(CCCNc1nc2ccccc2c2[nH]c3ccccc3c12)CCCNc1nc2ccccc2c2[nH]c3ccccc3c12.Cl [Compound 8b, N,N-bis-[3-(11H-indolo[3,2-c]quinolin-6-yl)aminopropyl]-N-methylamine hydrochloride]	< 0.01	< 0.01	< 0.01	0.02	< 0.01	< 0.01	0.11	0.09	< 0.01	< 0.01	0.06	0.07	< 0.01	< 0.01	< 0.01	< 0.01	0.02	0.05	< 0.01	0.08	concentration that completely inhibited telomerase activity (telomerase): approximately 0.02 nM; GI50 (PC-3): 0.07 µM; GI50 [1, 2]: < 0.02 µM; GI50 ([1]; Homo sapiens, span over the cell lines of Table 2, read-out: GI50 value for each cell line (span over the cell lines)): 0.01 to 0.11 µM; GI50 (SN12C): < 0.01 µM; GI50 (786-0): < 0.01 µM; GI50 (OVCAR-3): 0.05 µM; GI50 (LOX IMVI): < 0.01 µM; GI50 (K-562): < 0.01 µM
c1ccc2c(c1)nc(NCCN1CCNCC1)c1c3ccccc3[nH]c21 [Compound 5, N-(11H-Indolo[3,2-c]quinolin-6-yl)-2-(piperazin-1-yl)ethanamine]	0.07	0.3	0.08	0.38	0.18	0.04	0.63	0.34	0.29	0.19	1.26	1.06	0.31	0.11	0.4	0.5	0.22	0.16	0.12	0.54	concentration that completely inhibited telomerase activity (telomerase): approximately 0.02 nM; GI50 (PC-3): 0.31 µM; GI50 [1, 2]: ~0.3 µM; GI50 ([1]; mean values of over all cell lines tested, read-out: MG MID (mean GI50)): 0.35 µM; GI50 (SN12C): 0.08 µM; GI50 (786-0): 0.22 µM; GI50 (OVCAR-3): 0.27 µM; GI50 (LOX IMVI): 0.2 µM; GI50 (K-562): 0.07 µM
CN(CCCN)CCCNc1nc2ccccc2c2[nH]c3ccccc3c12 [Compound 10, N^1-[3-(11H-Indolo[3,2-c]quinolin-6-ylamino)propyl]-N^1-methylpropane-1,3-diamine hydrochloride]	0.08	0.15	0.05	0.38	0.37	0.04	0.19	0.17	0.09	0.31	0.19	0.2	0.13	0.08	0.15	0.25	0.18	0.24	0.15	0.15	GI50 (PC-3): 0.32 µM; GI50 [1, 2]: 0.18 µM; GI50 (SN12C): 0.07 µM; GI50 (786-0): 0.09 µM; GI50 (OVCAR-3): 0.22 µM; GI50 (LOX IMVI): 0.21 µM; GI50 (K-562): 0.04 µM
NCCCN1CCN(CCCNc2nc3ccccc3c3[nH]c4ccccc4c23)CC1 [Compound 6, {3-[4-(3-Aminopropyl)piperazin-1-yl]propyl}(11H-indolo[3,2-c]quinolin-6-yl)amine hydrochloride]	0.18	0.27	0.12	0.2	0.35	0.04	0.37	0.23	0.42	0.3	0.21	0.18	0.14	0.2	0.24	0.31	0.21	0.12	0.14	0.25	concentration that completely inhibited telomerase activity (telomerase): approximately 0.02 nM; GI50 (PC-3): 0.35 µM; GI50 [1, 2]: ~0.3 µM; GI50 (SN12C): < 0.01 µM; GI50 (786-0): 0.26 µM; GI50 (OVCAR-3): 0.24 µM; GI50 (LOX IMVI): 0.29 µM; GI50 (K-562): 0.07 µM
COc1ccc(CCNc2nc3ccccc3c3[nH]c4ccccc4c23)cc1OC [Compound 7c, 6-[2-(3,4-dimethoxyphenyl)ethylamino]-11H-indolo[3,2-c]quinoline hydrochloride]	–	–	–	–	–	–	–	–	–	–	–	–	–	–	–	–	–	–	–	–	concentration that completely inhibited telomerase activity (telomerase): approximately 2 nM
6-[2-(3,4-dihydroxyphenyl)ethylamino]-11 indolo[3,2-c]quinoline hydrochloride [Compound 7b]	–	–	–	–	–	–	–	–	–	–	–	–	–	–	–	–	–	–	–	–	concentration that completely inhibited telomerase activity (telomerase): approximately 2 nM
